Assay results taken from ChEMBL document CHEMBL1126406, “Novel oxathiazinones as gastrin ligands : Unexpected preducts from the schotten-baumann reaction of arylsulphonyl chlorides with derivatives of aspartic acid” (1992).

What was measured:
Mus musculus [1] = organism: Mus musculus; assay: The compound was evaluated for the percentage of pentagastrin control in the isolated mouse stomach assay; format: functional
Mus musculus [2] = organism: Mus musculus; assay: Evaluated for the Log A50 value in the isolated mouse stomach assay; format: functional

SMILES	Control (Mus musculus [1])	Log A50 (Mus musculus [2])
NC(=O)C(Cc1ccccc1)NC(=O)[C@H](CC(=O)O)NS(=O)(=O)c1ccc2ccccc2c1 (stereo partly specified)	96%	-5.6
Cc1ccc(S2(=O)=N[C@H](C(=O)NC(Cc3ccccc3)C(N)=O)CC(=O)O2)cc1 (stereo partly specified)	56%	-5.3
NC(=O)C(Cc1ccccc1)NC(=O)[C@@H]1CC(=O)OS(=O)(c2ccc3ccccc3c2)=N1 (stereo partly specified)	67%	-8.1
